According to US11737977B2, “Cerasome delivery system for targeting activated CD44 molecule, preparation method and use thereof” (Beijing Inno Medicine Co., Ltd., priority 2017, dated 2023):

What was measured:
[1] = test system: arterial vulnerable plaques; assay: In vivo CT tracing of arterial vulnerable plaques, iodixanol; design: species or system mice; conditions: iodixanol 0.66 mg/kg, tail vein, CT 72 hours after administration; FIG. 16
Procedure: (1) A commercially available iodixanol bulk drug was used, and the cerasome delivery system HA-CL1@I loaded with a CT tracer, the cerasome delivery system HA-CL1@I+S loaded with a tracer and a CD44 activator, and the non-targeting cerasome delivery system CL1@I loaded with a tracer (as a comparative example) were prepared by the method described in the above Example 2.
(2) A mouse model of atherosclerotic vulnerable plaque was constructed according to the method described in Example 6 above.
(3) The model mice were fed with a high-fat diet (same as in Example 6) for 16 weeks. 30 model mice were randomly divided into the blank group (6 mice), the iodixanol group (6 mice, given the commercially available iodixanol bulk drug, and the dosage of iodixanol was 0.66 mg/kg body weight), the CL1@I group (6 mice, given CL1@I, and the dosage of iodixanol was 0.66 mg/kg body weight), the HA-CL1@I group (6 mice, given HA-CL1@I, and the dosage of iodixanol was 0.66 mg/kg body weight), and HA-CL1@I+S group (6 mice, given HA-CL1@I+S, the dosage of iodixanol was 0.66 mg/kg body weight, and the dosage of CD44 activator-LPS was about 0.023 mg/kg body weight). […]

[2] = test system: arterial vulnerable plaques; assay: In vivo therapeutic effect on arterial vulnerable plaques (carotid MRI, percentage of plaque progression); design: species or system ApoE−/− mice; conditions: 5 mg rosuvastatin per kg, once every other day, 5 treatments; FIG. 14
[3] = oral, clinical practice; cited from earlier work
[4] = target: T1, CD44 on the surface of endothelial cells at arterial vulnerable plaques (Mus musculus, UniProt P15379); assay: Binding force integration of FL-ligand/antibody on endothelial cells (flow cytometry MFI); design: species or system mice; conditions: aminofluorescein-labeled ligand/antibody 10 mg/ml, 30 minutes, 37° C.
T1 construct: from tissue; host or cells: endothelial cells from arterial vulnerable plaques of atherosclerosis model mice
T1 sequence (P15379 23-778): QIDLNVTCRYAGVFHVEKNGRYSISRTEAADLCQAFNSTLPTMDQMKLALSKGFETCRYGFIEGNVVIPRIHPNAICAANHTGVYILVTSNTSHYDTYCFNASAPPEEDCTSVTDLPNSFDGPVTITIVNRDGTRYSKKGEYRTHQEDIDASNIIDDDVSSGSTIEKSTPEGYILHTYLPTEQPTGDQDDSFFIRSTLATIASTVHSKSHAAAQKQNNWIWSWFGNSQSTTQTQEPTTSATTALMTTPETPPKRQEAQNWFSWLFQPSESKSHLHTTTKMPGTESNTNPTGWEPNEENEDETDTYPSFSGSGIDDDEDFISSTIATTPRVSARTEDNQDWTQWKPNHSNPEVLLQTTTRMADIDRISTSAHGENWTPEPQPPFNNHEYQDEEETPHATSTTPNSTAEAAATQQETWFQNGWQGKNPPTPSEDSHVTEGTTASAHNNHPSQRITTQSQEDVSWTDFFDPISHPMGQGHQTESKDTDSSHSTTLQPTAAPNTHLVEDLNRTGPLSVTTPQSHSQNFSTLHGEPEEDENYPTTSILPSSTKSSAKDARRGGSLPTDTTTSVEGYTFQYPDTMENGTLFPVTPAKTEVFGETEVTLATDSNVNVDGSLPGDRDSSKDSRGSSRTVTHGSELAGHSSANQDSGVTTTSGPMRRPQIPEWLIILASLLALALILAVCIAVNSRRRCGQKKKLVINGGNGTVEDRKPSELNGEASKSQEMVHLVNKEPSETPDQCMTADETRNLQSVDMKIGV
Procedure: Endothelial cells at normal arterial vessel walls and endothelial cells at arterial vulnerable plaques of model mice were taken, and hyaluronic acid labeled with aminofluorescein at a concentration of 10 mg/ml (represented by “FL-HA”) was added, and the sample was cultured in Dulberic modified Eagle's medium (DMEM) (containing calf serum with a volume fraction of 10%, 100 U/ml penicillin, 100 U/ml streptomycin) at 37° C., in 5% CO2 incubator. After 30 minutes, the mean fluorescence intensity (MFI) was determined by flow cytometry (CytoFLEX, Beckman Coulter, U.S.A.), and the binding force integration of FL-HA on the surface of both cells was calculated (the binding force of endothelial cells of normal arterial vessel walls is set to 1).
Endothelial cells at normal arterial vessel walls and endothelial cells at arterial vulnerable plaques of model mice were taken, and the ligand/antibody labeled with aminofluorescein at a concentration of 10 mg/ml was added, the sample was cultured in Dulberic modified Eagle's medium (DMEM) (containing calf serum with a volume fraction of 10%, 100 U/ml penicillin, 100 U/ml streptomycin) at 37° C., in 5% CO2 incubator. After 30 minutes, the mean fluorescence intensity (MFI) was determined by flow cytometry (CytoFLEX, Beckman Coulter, U.S.A.), and the binding force integration of FL-ligand/antibody on the surface of both cells was calculated (the binding force of CD44 of endothelial cells of normal arterial vessel walls to ligand/antibody is set to 1).

[5] = target: T2, CD44 on the surface of macrophages inside arterial vulnerable plaques (Mus musculus, UniProt P15379); assay: Binding force integration of FL-ligand/antibody on macrophages (flow cytometry MFI); design: species or system mice; conditions: aminofluorescein-labeled ligand/antibody 10 mg/ml, 30 minutes, 37° C.
T2 construct: from tissue; host or cells: macrophages from inside arterial vulnerable plaques of atherosclerosis model mice
T2 sequence (P15379 23-778): T1 sequence (P15379 23-778)
Procedure: Intraperitoneal macrophages and macrophages inside arterial vulnerable plaques of model mice were taken, and hyaluronic acid labeled with aminofluorescein at a concentration of 10 mg/ml (represented by “FL-HA”) was added, the sample was cultured in DMEM (containing calf serum with a volume fraction of 10%, 100 U/ml penicillin, 100 U/ml streptomycin) at 37° C., in 5% CO2 incubator.
Intraperitoneal macrophages and macrophages inside arterial vulnerable plaques of model mice were taken, and the ligand/antibody labeled with aminofluorescein at a concentration of 10 mg/ml was added, the sample was cultured in DMEM (containing calf serum with a volume fraction of 10%, 100 U/ml penicillin, 100 U/ml streptomycin) at 37° C., in 5% CO2 incubator.

Molecule | tracing effect on arterial vulnerable plaques (CT) [1] | therapeutic effect on arterial vulnerable plaques (percentage of plaque progression) [2] | bioavailability when administered orally [3] | binding force integration, endothelial cells at vulnerable plaques versus endothelial cells of normal arterial vessel walls (set to 1) [4] | binding force integration, macrophages inside vulnerable plaques versus macrophages outside the plaque (set to 1) [5]
CC(=O)N(CC(O)CN(C(C)=O)c1c(I)c(C(=O)NCC(O)CO)c(I)c(C(=O)NCC(O)CO)c1I)c1c(I)c(C(=O)NCC(O)CO)c(I)c(C(=O)NCC(O)CO)c1I (stereo not shown) [iodixanol] | does not show any tracing effect |  |  |  | 
CC(C)c1nc(N(C)S(C)(=O)=O)nc(-c2ccc(F)cc2)c1/C=C/[C@@H](O)C[C@@H](O)CC(=O)O [rosuvastatin] |  | shows a certain therapeutic effect, but it could not prevent the continued growth of vulnerable plaques | about 20% |  | 
collagen |  |  |  | 21 times | 38 times
fibronectin |  |  |  | 18 times | 35 times
hyaluronic acid [HA, reference compound] |  |  |  | approximately 24 times | approximately 40 times
laminin |  |  |  | 16 times | 37 times
osteopontin: natural ligand for CD44 |  |  |  | 17 times | 33 times
